The values below come from patent US20240384250A1, “FIBROBLAST GROWTH FACTOR 23 MODULATING COMPOUNDS” (THE UAB RESEARCH FOUNDATION, priority 2021, published 2024).

Entries after “also recorded” stand apart in the source; their conditions may differ.

The target of experiment [1] is T1, FGF2 binding to FGFR1c (Homo sapiens, UniProt P11362).
T1 construct: a chimeric protein consisting of the FGFR1 ectodomain and the Fc region of a human IgG; purchased R&D Systems 233-FB/CF; 658FR050
T1 sequence (P11362 22-376 limits assumed): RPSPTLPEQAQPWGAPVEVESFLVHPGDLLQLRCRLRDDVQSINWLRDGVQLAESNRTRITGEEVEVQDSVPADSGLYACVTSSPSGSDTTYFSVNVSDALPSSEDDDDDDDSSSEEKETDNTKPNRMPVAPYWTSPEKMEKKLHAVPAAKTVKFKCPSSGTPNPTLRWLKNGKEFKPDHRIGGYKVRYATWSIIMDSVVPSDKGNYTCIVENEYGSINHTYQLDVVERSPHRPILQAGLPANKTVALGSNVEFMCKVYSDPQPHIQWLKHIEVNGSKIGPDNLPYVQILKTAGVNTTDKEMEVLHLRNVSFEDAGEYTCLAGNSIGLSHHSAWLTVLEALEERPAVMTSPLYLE
In words: Plate-based binding of paracrine FGF to Fc-FGFR1c with heparin and/or sKL. To be noted: 0.4 USP heparin before incubation with FGFR1c. As for the experimental part:
(§1) Proteins were coated on 96-well plates (MaxiSorp; 439454, Thermo Fisher Scientific), and proteins were added to wells in 100 μl of enzyme-linked immunosorbent assay (ELISA) coating buffer (E107, Bethyl Laboratories) with a lid placed overtop and incubated at 4° C. overnight. Plates were washed 5× with 350 μl of assay buffer (50 mM Tris [pH 7.4], 200 mM NaCl, 0.01% Tween 20) on a 50 TS microplate washer (BioTek). Plates were blocked for 1 hour in 200 μl of assay buffer with 0.5% BSA. Plates were washed as before, and proteins were incubated on plates in 100 μl of assay buffer with 0.5% BSA. Proteins or heparin was incubated in orders described in the respective figure legends. Assays using FLAG-tag-based detection were incubated with anti-FLAG coupled to HRP at 1:20,000, and assays using Fc detection were incubated with anti-human Fc coupled to HRP at 1:10,000. Plates were washed as above, and 100 μl of 3,3′,5,5′-tetramethylbenzidine (TMB) substrate (E102, Bethyl Laboratories) was added for 15 to 20 minutes until positive wells developed a dark blue color. Reactions were stopped with ELISA stop solution (E115, Bethyl Laboratories) and analyzed using the Synergy HI plate reader (BioTek) at 450 nm wavelength. […] As a control to remove background absorbance values, wells were coated with an equal amount of BSA to match the amount of protein coated in experimental wells and treated the same as experimental wells. To study the effects of sKL on the binding between paracrine FGFs and FGFRs, plates were run as above except coated with paracrine FGFs. Fc-FGFR1 was preincubated with sKL or vehicle for 60 minutes, and then the combination was added to wells and the assay was run as before.

Experiment [2] addresses T2, FGF5 binding to FGFR1c (Homo sapiens, UniProt P11362).
T2 construct: a chimeric protein consisting of the FGFR1 ectodomain and the Fc region of a human IgG; purchased R&D Systems 237-F5/CF; 658FR050
Described as above. To be noted: 0.4 USP heparin. As for the experimental part: as §1

For experiment [3], the target named is T3, FGF7 binding to FGFR1c (Homo sapiens, UniProt P11362).
T3 construct: a chimeric protein consisting of the FGFR1 ectodomain and the Fc region of a human IgG; purchased R&D Systems 251-KG/CF; 658FR050
The description is as above. To be noted: 0.4 USP heparin. As for the experimental part:
as §1

The target in experiment [4] is T4, FGF23 (Homo sapiens, UniProt Q9GZV9, R179Q).
T4 construct: purchased R&D Systems 2604FG025/CF
T4 sequence (Q9GZV9 25-251 R179Q): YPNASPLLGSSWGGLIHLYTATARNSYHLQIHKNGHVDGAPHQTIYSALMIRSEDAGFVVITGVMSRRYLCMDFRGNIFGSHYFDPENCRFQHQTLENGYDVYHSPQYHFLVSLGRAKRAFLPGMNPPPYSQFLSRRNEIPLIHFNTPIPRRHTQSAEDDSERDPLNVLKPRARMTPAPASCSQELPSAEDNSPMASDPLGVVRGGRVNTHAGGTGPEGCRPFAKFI
Put plainly: Surface plasmon resonance, heparin immobilized on chip. Format: binding. To be noted: SPR. As for the experimental part:
For the direct quantitative analysis of label-free molecular interactions in real time, surface plasmon resonance studies were conducted using BIAcore T200 and T200 evaluation software (28975001, Cytiva). Sensor SA (BR100398) and CMS chips (BR100399) were from Cytiva. For the preparation of heparin chips, heparin (2 mg) and amine-PEG3-Biotin (2 mg, 21347, Pierce) were dissolved in 200 μl of H2O and 10 mg of NaCNBH3 was added. The reaction mixture was heated at 70° C. for 24 hours; an additional 10 mg of NaCNBH3 was added; and the reaction was heated at 70° C. for another 24 hours. After cooling to room temperature, the mixture was desalted with the spin column (3000 MWCO). Biotinylated heparin was collected, freeze dried, and used for chip preparation. Biotinylated heparin was immobilized to streptavidin chips according to the manufacturer's protocol. In brief, 20 μl of biotinylated heparin solution (0.1 mg/ml) in HBS-P running buffer (0.01 M N-2-hydroxyethylpiperazine-N′-2-ethanesulfonic acid, 0.15 M NaCl, 0.005% surfactant P20 [pH7.4]; BR100368, Cytiva) was injected over flow cell 2 of the streptavidin chip at a flow rate of 10 μl/min. The successful immobilization of heparin was confirmed by the observation of an approximately 200-resonance unit increase in the sensor chip. The control flow cell (flow cell 1) was prepared by 1-minute injection with saturated biotin. For the preparation of FGFR4 chips, Fc-FGFR4 protein (human ectodomain) was immobilized on research grade CMS chips according to the standard amine coupling protocol. Briefly, carboxymethyl groups on the CMS chip surface were first activated using an injection pulse of […] of an equimolar mix of N-ethyl-N-(dimethylaminopropyl) carbodiimide and N-hydroxysuccinimide (final concentration 0.05 M, mixed immediately before injection). After activation, FGFR4 was diluted to […] in 100 mM sodium acetate (pH 5.5) buffer and injected over the activated biosensor surface. Excess unreacted sites on the sensor surface were deactivated with a 35 μl injection of 1 M ethanolamine. A reference flow cell was prepared using an injection pulse of […] of an equimolar mix of N-ethyl-N-(dimethylaminopropyl) carbodiimide and N-hydroxysuccinimide (final concentration 0.05 M, mixed immediately before injection) followed by a 35 μl injection of 1 M ethanolamine. For the measurement of interactions between FGF23 (human protein), FGFR4 (human ectodomain protein), klotho (human ectodomain, self-made; see above), and heparin, samples were diluted in HBS-P buffer. Different dilutions of protein were injected at a flow rate of 30 μl/min with HBS-P buffer as running buffer. At the end of the sample injection, HBS-P buffer was flowed over the sensor surface to facilitate dissociation. After a 3-minute dissociation time, the sensor surface was regenerated by injecting with 30 μl of 2 M NaCl to get a fully regenerated surface. The response was monitored as a function of time (sensorgram) at 25° C.

On to heparin [reference compound], for which the “FGF2 binding to FGFR1c with heparin” value in experiment [1] was “increased the binding of FGF2”. In experiment [1] (listed as heparin), the “FGF2 binding to FGFR1c with heparin” value was “significantly increased; also recorded: increased FGF2 binding”. In experiment [2], the “FGF5 binding to FGFR1c with heparin” value is “increased the binding of FGF2 and FGFS to FGFR1c”. Also, the “FGF7 binding to FGFR1c with heparin” value in experiment [3] is reported as “did not induce binding”. The substance also showed a Kd in experiment [4] of 7.6 nM. In experiment [4] (25° C.), the ka is 4.8 × 10^5 1/MS and the kd was 3.6 × 10^−3 1/S.
